US7342021B2, “Phosphodiesterase 4 inhibitors” (Memory Pharmaceuticals Corp., priority 2001, dated 2008)
Counter-ions that a name gives are not always drawn.

What was measured:
[1] = tested on: rats; assay: Radial arm maze task in rats, an in vivo test for learning and memory; set-up: species or system rat; conditions: MK-801 0.1 mg/kg i.p., compared to control, p<0.01
Experimental: The test was performed as previously described (Zhang, H.-T., Crissman, A. M., Dorairaj, N. R., Chandler, L. J., and O'Donnell, J. M., Neuropsychopharmacology, 2000, 23, 198-204.). Five days after initial housing, rats (male Spraque-Dawley (Harlan) weighing 250 to 350 g) were placed in the eight-arm radial maze (each arm was 60×10×12 cm high; the maze was elevated 70 cm above the floor) for acclimation for two days. Rats were then placed individually in the center of the maze for 5 minutes with food pellets placed close to the food wells, and then, the next day, in the wells at the end of the arms; 2 sessions a day were conducted. Next, four randomly selected arms were then baited with one pellet of food each. The rat was restricted to the center platform (26 cm in diameter) for 15 seconds and then allowed to move freely throughout the maze until it collected all pellets of food or 10 minutes passed, whichever came first. Four parameters were recorded: 1) working memory errors, i.e., entries into baited arms that had already been visited during the same trial; 2) reference memory errors, i.e., entries into unbaited arms; 3) total arm entries; and 4) the test duration (seconds), i.e., the time spent in the collection of all the pellets in the maze. […]
(§1) All data were analyzed by analyses of variance (ANOVA); individual comparisons were made using Kewman-Keuls tests. […]

[2] = tested on: rats; assay: Passive avoidance in rats, an in vivo test for learning and memory; set-up: species or system rat; conditions: MK-801 0.1 mg/kg pretreatment, retention test 24 hours after electric shock, compared to the vehicle, p<0.001
Experimental: The test was performed as previously described (Zhang, H.-T., Crissman, A. M., Dorairaj, N. R., Chandler, L. J., and O'Donnell, J. M., Neuropsychopharmacology, 2000, 23, 198-204.). The apparatus (Model E10-16SC, Coulbourn Instruments, Allentown, Pa.) consisted of a two-compartment chamber with an illuminated compartment connected to a darkened compartment by a guillotine door. The floor of the darkened compartment consisted of stainless steel rods through which an electric foot-shock could be delivered from a constant current source. All experimental groups were first habituated to the apparatus the day before the start of the experiment. During the training, the rat (Male Spraque-Dawley (Harlan) weighing 250 to 350 g) was placed in the illuminated compartment facing away from the closed guillotine door for 1 minute before the door was raised. The latency for entering the darkened compartment was recorded. After the rat entered the darkened compartment, the door was closed and a 0.5 mA electric shock was administered for 3 seconds. […] The latency for entering the darkened compartment was recorded for up to 180 seconds, at which time the trial was terminated.
as §1

[3] = Solubility of the mesylate salt in H2O; assay type: physicochemical
Experimental: To obtain the methansulphonate salt (mesylate salt), 4 ml of 0.1N CH3SO3H in EtOAc was added to a solution of 145 mg (0.4 mmol) 6-cyclopropylamino-9-(2-fluorobenzyl)-2-trifluoromethylpurine in EtOAc. Then, 1 ml of hexane was added to a warm solution and the resultant mixture was allowed to crystallize (within a refrigerator). The solid was collected to give 148 mg of the mesylate salt. […] M.p. 167.5-169.0 C; m.p. 114-118 C for free base.

| Structure (SMILES) | reference memory errors (frequency) [1] | working memory errors (frequency) [1] | latency for entering the darkened compartment [2] | solubility in H2O [3] |
| --- | --- | --- | --- | --- |
| C[C@]12N[C@H](Cc3ccccc31)c1ccccc12 [MK-801] | increased the frequencies | increased the frequencies | markedly reduced this latency |  |
| Fc1ccccc1Cn1cnc2c(NC3CC3)nc(C(F)(F)F)nc21 [Example 4 mesylate salt, 6-cyclopropylamino-9-(2-fluorobenzyl)-2-trifluoromethylpurine] |  |  |  | relatively insoluble |
